A word on the AC50: it is the concentration giving half of the maximal activity seen.

Molecules are shown by their SMILES.

The target of the assay is PKR(wt) (Homo sapiens, UniProt P30613). Put plainly: Luminescence Assay Protocol (Kinase Glo Plus), PKR(Wt/without FBP). Particulars: without FBP; for activation at 1.54 µM: compound 1.54 μM, read-out: I - AC50 LUM KGP woFBP % Fold @ 1.54 μM mean; for AC50: gmean, read-out: G - AC50 LUM KGP woFBP AC50 μM gmean; for Emax: highest % fold increase at any concentration, read-out: H - AC50 LUM KGP woFBP MAX % FOLD mean. It is filed as biochemical. How it is done:
Example 47: PKR(Wt/without FBP), PKR(G332S/with FBP), PKR(R510Q/without FBP)
The phosphorylation of Adenosine-5′-diphosphate (ADP) by various mutants of PKR was determined by the Kinase Glo Plus Assay (Promega) in the presence or absence of FBP [D-Fructose-1,6-diphosphate; BOC Sciences, CAS: 81028-91-3] as follows. Unless otherwise indicated, all reagents were purchased from Sigma-Aldrich. All reagents were prepared in buffer containing 50 mM Tris-HCl, 100 mM KCl, 5 mM MgCl2, and 0.01% Triton X100, 0.03% BSA, and 1 mM DTT. Enzyme and PEP [Phospho(enol) pyruvic acid] were added at 2× to all wells of an assay-ready plate containing serial dilutions of test compounds or DMSO vehicle. Final enzyme concentrations for PKR(wt), PKR(R510Q), and PKR(G332S) were 0.8 nM, 0.8 nM, and 10 nM respectively. Final PEP concentration was 100 μM. The Enzyme/PEP mixture was incubated with compounds for 30 minutes at RT before the assay was initiated with the addition of 2×ADP [Adenosine-5′-diphosphate] and KinaseGloPlus. Final concentration of ADP was 100 μM. […] For assays containing FBP, that reagent is added at 30 μM upon reaction initiation. Reactions were allowed to progress for 45 minutes at RT until luminescence was recorded by the BMG PHERAstar FS Multilabel Reader. All compounds were tested in triplicate at concentrations ranging from 42.5 μM to 2.2 nM in 0.83% DMSO.
Luminescence values were converted to % Fold increase by normalizing to the average of the DMSO control and multiplying by 100. Max, min, slope and AC50 were determined by the standard four parameter fit algorithm of ActivityBase XE Runner. Compounds were evaluated with three parameters—AC50, MAX % Fold, and % Fold@1.54 μM (FIG. 1). The AC50 value for a compound is the concentration […] corresponding to the midway between the maximum and minimum values of the four parameter logistic curve fit (i.e., at which the % fold increase along the four parameter logistic curve fit is halfway between MAX % Fold and MIN % Fold (% Fold Midpoint)), MAX % Fold is the highest fold increase observed at any concentration of compound, and % Fold@1.54 μM is the fold increase at a compound concentration of 1.54 μM. The parameter % Fold@1.54 μM was selected to capture elements of both the AC50 and MAX % Fold and to provide a ranking based on both potency and effect. The compound concentration of 1.54 μM was chosen as one that can optimally differentiate the set of compounds based on the range of activities observed.
As set forth in Tables 6 and 7 below, AC50 values (columns A, D, G) are defined as follows: ≤0.1 μM (+++); >0.1 μM and ≤1.0 μM (++); >1.0 μM and ≤40 μM (+); >40 μM (0). Max % FOLD values (columns B, E, H) are defined as follows: ≤75% (+); >75% and ≤250% (++); >250% and ≤500% (+++). % Fold@1.54 μM values (columns C, F, I) are defined as follows: ≤75% (+); >75% and ≤250% (++); >250% and ≤500% (+++).
(In Kinase-Glo more light means more ATP remaining.)

PKR(wt), sequence (P30613 whole entry): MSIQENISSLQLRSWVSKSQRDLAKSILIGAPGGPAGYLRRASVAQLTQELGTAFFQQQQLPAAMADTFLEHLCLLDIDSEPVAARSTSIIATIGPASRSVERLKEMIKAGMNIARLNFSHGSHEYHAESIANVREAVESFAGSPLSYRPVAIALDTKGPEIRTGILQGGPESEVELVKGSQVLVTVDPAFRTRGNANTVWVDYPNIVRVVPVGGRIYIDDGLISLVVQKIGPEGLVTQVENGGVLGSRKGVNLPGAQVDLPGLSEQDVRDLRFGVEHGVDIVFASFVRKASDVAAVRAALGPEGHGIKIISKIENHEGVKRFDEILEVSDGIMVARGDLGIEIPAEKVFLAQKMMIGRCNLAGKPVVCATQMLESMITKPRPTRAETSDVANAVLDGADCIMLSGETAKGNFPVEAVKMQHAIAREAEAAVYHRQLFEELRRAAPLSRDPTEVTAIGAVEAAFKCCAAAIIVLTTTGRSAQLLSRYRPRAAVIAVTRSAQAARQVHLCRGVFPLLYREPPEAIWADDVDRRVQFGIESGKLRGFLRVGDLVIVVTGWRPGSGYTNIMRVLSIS

Regarding `O=C(C(CO)c1ccccc1)N1CC2=C(C1)CN(S(=O)(=O)c1ccc3occc3c1)C2` (stereo not drawn) [Example 8, 1-(5-(benzofuran-5-ylsulfonyl)-3,4,5,6-tetrahydropyrrolo[3,4-c]pyrrol-2(1H)-yl)-3-hydroxy-2-phenylpropan-1-one], the activation at 1.54 µM lay within 250 to 500%, the AC50 is no more than 0.1 µM and the Emax lay within 250 to 500%.

`CC(C)(CO)C(=O)N1CC2=C(C1)CN(S(=O)(=O)c1ccc3occc3c1)C2` [Example 9, 1-(5-(benzofuran-5-ylsulfonyl)-3,4,5,6-tetrahydropyrrolo[3,4-c]pyrrol-2(1H)-yl)-3-hydroxy-2,2-dimethylpropan-1-one]: the activation at 1.54 µM was in the range of 75 to 250%, the AC50 is no more than 0.1 µM and the Emax lay within 75 to 250%.

For the molecule `CC(CO)(CO)C(=O)N1CC2=C(C1)CN(S(=O)(=O)c1ccc3occc3c1)C2` [Example 10, 1-(5-(benzofuran-5-ylsulfonyl)-3,4,5,6-tetrahydropyrrolo[3,4-c]pyrrol-2(1H)-yl)-3-hydroxy-2-(hydroxymethyl)-2-methylpropan-1-one], the activation at 1.54 µM was in the range of 75 to 250%, the concentration at half-maximal activity (AC50) was no more than 0.1 µM and the Emax lay within 250 to 500%.

Consider `CCC(CO)(CO)C(=O)N1CC2=C(C1)CN(S(=O)(=O)c1ccc3occc3c1)C2` [Example 11, 1-(5-(benzofuran-5-ylsulfonyl)-3,4,5,6-tetrahydropyrrolo[3,4-c]pyrrol-2(1H)-yl)-2,2-bis(hydroxymethyl)butan-1-one], for which the activation at 1.54 µM lay in the range of 75 to 250%, the half-maximal activity concentration (AC50) is 0.1 to 1 µM and the Emax is 250 to 500%.

On to `O=C([C@@H]1CCOC1)N1CC2=C(C1)CN(S(=O)(=O)c1ccc3occc3c1)C2` [Example 12, (R)-(5-(benzofuran-5-ylsulfonyl)-3,4,5,6-tetrahydropyrrolo[3,4-c]pyrrol-2(1H)-yl)(tetrahydrofuran-3-yl)methanone], for which the activation at 1.54 µM is 250 to 500%, the AC50 lay within 0.1 to 1 µM and the Emax lay within 250 to 500%.

`O=C([C@H]1CCOC1)N1CC2=C(C1)CN(S(=O)(=O)c1ccc3occc3c1)C2` [Example 13, (S)-(5-(benzofuran-5-ylsulfonyl)-3,4,5,6-tetrahydropyrrolo[3,4-c]pyrrol-2(1H)-yl)(tetrahydrofuran-3-yl)methanone]: the activation at 1.54 µM was 75 to 250%, the AC50 was in the range of 0.1 to 1 µM and the Emax lay in the range of 250 to 500%.

In the case of `COCC1(C(=O)N2CC3=C(C2)CN(S(=O)(=O)c2ccc4occc4c2)C3)CC1` [Example 17, (5-(benzofuran-5-ylsulfonyl)-3,4,5,6-tetrahydropyrrolo[3,4-c]pyrrol-2(1H)-yl)(1-(methoxymethyl)cyclopropyl)methanone], the activation at 1.54 µM is 75 to 250%, the AC50 is 0.1 to 1 µM and the Emax was in the range of 75 to 250%.

For the molecule `Cc1nc2ccc(S(=O)(=O)N3CC4=C(CN(C(=O)C(C)(C)CO)C4)C3)cc2o1` [Example 21, 3-hydroxy-2,2-dimethyl-1-(5-((2-methylbenzo[d]oxazol-6-yl)sulfonyl)-3,4,5,6-tetrahydropyrrolo[3,4-c]pyrrol-2(1H)-yl)propan-1-one], the activation at 1.54 µM lay in the range of 75 to 250%, the AC50 is 1 to 40 µM and the Emax fell in the range of 75 to 250%.

`O=C(CCO)N1CC2=C(C1)CN(S(=O)(=O)c1ccc3occc3c1)C2` [Example 22, 1-(5-(benzofuran-5-ylsulfonyl)-3,4,5,6-tetrahydropyrrolo[3,4-c]pyrrol-2(1H)-yl)-3-hydroxypropan-1-one]: the activation at 1.54 µM was in the range of 250 to 500%, the AC50 lay within 0.1 to 1 µM and the Emax is 250 to 500%.

Turning to `C[C@@H](O)CC(=O)N1CC2=C(C1)CN(S(=O)(=O)c1ccc3occc3c1)C2` [Example 23, (R)-1-(5-(benzofuran-5-ylsulfonyl)-3,4,5,6-tetrahydropyrrolo[3,4-c]pyrrol-2(1H)-yl)-3-hydroxybutan-1-one], the activation at 1.54 µM was in the range of 250 to 500%, the AC50 lay within 0.1 to 1 µM and the Emax fell in the range of 250 to 500%.

The record behind these values is patent publication US11649242B2, “Pyrrolopyrrole compositions as pyruvate kinase (PKR) activators” (FORMA Therapeutics, Inc., priority 2017, dated 2023).
